Entries after “also recorded” stand apart in the source; their conditions may differ. Blank lines part the entries; values can stand above or below the compound they belong to. Starred links: 1 amine or outer side, 2 acyl side, 3 side chain; linkers in the order of their positions; H or OH if unused. Positions of bridges follow the written chain, without caps; N, C: chain ends. Residues, ends and D or L forms follow the SMILES beside them. X1 = C(C[*:1])C[*:2]
Legend:
[1] = Plasma stability test; format: in vitro ADME; settings: human plasma, 37° C.
Procedure: 1 mM stock solution of the corresponded peptide was prepared in PBS buffer (pH 7.4). Next, 50 μL from […] this solution were added to 1 mL of human plasma (Sigma-Aldrich, P9523). The mixture was incubated at 37° C. with mechanical shaking at 300 rpm. Aliquots were withdrawn in portions of 150 μL at different time points for analysis and mixed with 60 μL ACN/EtOH (1:1 v/v) for plasma protein precipitation. After centrifugation at 12000 rpm for 5 min, the supernatant was collected and analyzed by HPLC and HPLC-MS.

[2] = tested on: Caki-1 cells; format: cell-based, human; settings: 72 h
Procedure: All of the cells were grown adherently.
Antiproliferative assays. […] For the following 72h, every 24 h the cell culture media was changed and fresh media containing the compounds was added, 1% DMSO was used as control. After 72h of treatment, both floating and attached cells were collected and analyzed.

[3] = circular dichroism; settings: deionized water; pH unbuffered; 20 °C; 25 uM
[4] = FIG. 5A
Procedure: (§1) Table printed on a drawing sheet, FIG. 5A
(§2) FIG. 5C is a CD spectra of stapled peptides and their linear counterparts measured in water at 20° C.;
(§3) FIG. 5E is a plot of H3K27me3 inhibition obtained in an enzymatic assay using endogenous PRC2 extracted from Caki-1 cells and recombinant PRC2 complex (for compound 11);
First reader's note: Half-life units (min or h) stand in the cells; the compound structures are in the upper table of FIG. 5A.

[5] = tested on: endogenous PRC2 extracted from a human clear cell renal carcinoma cell line (Caki-1); assay: H3K27Me3 Inhibition (% at 1 mM)
Procedure: as §1
Head of the field: H3K27Me3 Inhibition (% at 1 mM)
as §2, §3
First copying reader's note: Half-life units (min or h) stand in the cells; the compound structures are in the upper table of FIG. 5A.
Where the first naming reader finds the target: passage: using as catalytic complex endogenous PRC2 extracted from a human clear cell renal carcinoma cell line (Caki-1)

[6] = biological target: T1, α-chymotrypsin (Bos taurus, UniProt P00766); assay: Chymotrypsin stability test; format: in vitro ADME, bovine; settings: bovine, pH 8; read-out: t1/2 chymotrypsin stability assay (converted)
T1 construct: freshly prepared α-chymotrypsin from bovine pancreas type II, ≥40 U/mg; purchased; host or cells: bovine pancreas
Procedure: (§4) Assays were performed using freshly prepared α-chymotrypsin from bovine pancreas type II, ≥40 U/mg. The enzyme was initially reconstituted in HCl […] (1 μg/μL), and kept in ice until used. Peptides stock solutions were prepared in assay buffer (50 mM Tris.HCl pH=8.0, 560 μM calcium chloride, 0.1% Tween-20) containing <3% of DMSO. The reactions were performed at a 200 μL scale, in assay buffer, at final concentrations of 50 μM for peptide and […] for α-chymotrypsin (10 μL from the reconstitution solution). The mixture was incubated at 37° C. and aliquots were withdrawn in portions of 25 μL at different time points for analysis. The removed aliquots were mixed with 25 μL of water 1% TFA, and then treated with a column for detergent removal following the manufacturer's protocol (Pierce, Catalog #:87776). The rate of peptide proteolysis was monitored by HPLC and HPLC-MS analysis. Control experiments were carried out under the same conditions but using BSA instead of α-chymotrypsin.

[7] = biological target: T2, α-chymotrypsin from bovine pancreas type II (Bos taurus, UniProt P00766); assay: Chymotrypsin stability test; format: in vitro ADME; settings: HPLC and LC/MS monitoring
T2 construct: freshly prepared α-chymotrypsin from bovine pancreas type II, ≥40 U/mg; purchased; host or cells: bovine pancreas
Procedure: as §4

[8] = Circular dichroism (helicity); format: physicochemical; settings: CD in water, 20° C.
Procedure: Circular dichroism spectra were recorded on a CHIRASCAN™ spectrometer. Peptides were dissolved in deionized water, at a concentration of 25 μM. CD signal was monitored at 1 nm intervals from 180 to 260 nm with a 1-mm path quartz cuvette. The data reported is the average of three scans, subtracting the background. The helical content of each peptide was determined using prism 7 software, with molar ellipticity [θ][deg·cm^2dmol^−1] being calculated using the following formula: [θ]=1000000×0/(C×#of residues×l), where θ is the ellipticity read out from Chirascan, C is the concentration of peptide samples in μM, l is the pathlength of the cuvette measured in mm. The percentage helicity was calculated with formula:% Hellicity=100×[θ]222/[θ]max222, where [θ]max222=−31500×[1−([…])].

Compound: CC[C@H](C)[C@@H]1NC(=O)[C@@H](NC(=O)[C@H](CC(=O)O)NC(=O)[C@@H](NC(=O)[C@@H](NC(C)=O)[C@@H](C)O)C(C)C)CSCCCSC[C@@H](C(=O)N[C@@H](CC(C)C)C(=O)N[C@@H](CO)C(=O)N[C@H](C(=O)N[C@@H](CC(C)C)C(=O)N[C@@H](C)C(=O)N[C@@H](CCC(=O)O)C(=O)N[C@@H](CCC(=O)O)C(=O)N[C@H](C(=O)N2CCC[C@H]2C(=O)N[C@@H](CCC(N)=O)C(=O)N[C@@H](CC(N)=O)C(N)=O)C(C)C)C(C)C)NC(=O)[C@H](CO)NC(=O)[C@H](C)NC1=O [2 (GN-ZB2), TVD[CIASC](CH2)3LSVLAEEVPQN] (Ac-TVDCIASCLSVLAEEVPQN-NH2; linker 4-8 via X1; C-terminus assumed)
stability in plasma [1]: high resistance to proteolysis
IC50 [2]: 250 ± 30 nM

Compound: CC[C@H](C)[C@H](NC(=O)[C@H](CC(C)C)NC(=O)[C@H](Cc1ccccc1)NC(=O)[C@H](CC(=O)O)NC(=O)[C@H](Cc1c[nH]cn1)NC(=O)[C@H](CCSC)NC(=O)[C@H](CO)NC(=O)[C@@H](NC(=O)[C@@H]1CSCCCSC[C@H](NC(=O)[C@H](CC(N)=O)NC(=O)[C@H](CCCNC(=N)N)NC(=O)[C@H](CS)NC(=O)[C@H](CC(C)C)NC(C)=O)C(=O)N[C@@H](CCSC)C(=O)N[C@@H](CC(C)C)C(=O)N[C@@H](Cc2c[nH]cn2)C(=O)N1)C(C)C)C(N)=O [11 (GN-ZW11), LCRN[CMLHC](CH2)3VSMHDFLI] (Ac-LCRNCMLHCVSMHDFLI-NH2; linker 5-9 via X1)
helicity [3]: 95.1%
Proteolytic Stability (Chymotripsin, t1/2) [4]: 14.4 h
Proteolytic Stability (Plasma, t1/2) [4]: 7.3 h
H3K27Me3 Inhibition (% at 1 mM) [5]: 98.3 % at 1 mM

half-life at 50 μM [6]: 20.5 h
Compound: CC[C@H](C)[C@H](NC(=O)[C@H](CCCCN)NC(=O)[C@@H]1CSCCCSC[C@H](NC(=O)[C@@H](NC(C)=O)C(C)C)C(=O)N[C@@H](CC(N)=O)C(=O)N[C@@H](CCC(=O)O)C(=O)N[C@@H](CCC(=O)O)C(=O)N1)C(=O)N[C@@H](Cc1c[nH]c2ccccc12)C(=O)N[C@@H](CCCCN)C(=O)N[C@@H](CCCCN)C(=O)N[C@@H](CC(N)=O)C(=O)N[C@H](C(=O)N1CCC[C@H]1C(=O)N[C@@H](Cc1ccccc1)C(=O)N[C@@H](CC(C)C)C(N)=O)[C@@H](C)O [24 (GN-Z24), V[CNEEC](CH2)3KIWKKNTPFL] (Ac-VCNEECKIWKKNTPFL-NH2; linker 2-6 via X1; C-terminus assumed)
stability to chymotrypsin proteolysis [7]: enhanced stability; also recorded: marked protection

time to full degradation in plasma [1]: 5 min
helicity [8]: 4.8%
Compound: Ac-TVDKIASALSVLAEEVPQN-NH2 [compound 1, reference compound]
helicity [3]: 4.8%

Source: US11345725B2, “Bis-thioether stapled peptides as inhibitors of PRC2 function” (Research Foundation of the City University of New York, priority 2019, dated 2022)
